Key:
[1] = test system: patients with acute anterior myocardial infarction; settings: three-hour intravenous infusion; cited from earlier work
anesthetized rat = test: Hemodynamic effects (MABP and heart rate) of intravenous bolus in anesthetized rat; format: in vivo; settings: bolus injection of 0.2 mg/kg
Experimental: Preliminary experiments were conducted to evaluate the hemodynamic effects of nonamethonium ACK. Adult male Sprague-Dawley rats utilized in these studies were purchased from Charles River Laboratories (Wilmington, Mass.) and maintained in the University of Pittsburgh Animal Facility. Rats were provided free access to Prolab Isopro RMH 3000 rodent diet (PMI Nutritional Intl., Richmond, Ind.) a nd tap water. The rats weighed approximately 300 grams at the time of study.
Rats were anesthetized with Inactin (100 mg/kg, intraperitoneally or i.p.) and placed on a Deltaphase Isothermal Pad (Braintree Scientific, Inc.; Braintree, Mass.). Body temperature was monitored with a digital rectal probe thermometer (Physioltemp Instruments, Inc.; Clifton, N.J.) and maintained at 37° C. by adjusting a heat lamp above the animal. The trachea was cannulated with polyethylene (PE)- 240 to maintain airway patency, a PE-50 catheter was inserted into the left jugular vein and an intravenous infusion of 0.9% saline was initiated at 80 μl/min. A left carotid artery catheter (PE-50) was inserted and was connected to a digital blood pressure analyzer (Micro-Med; Louisville, Ky.) for continuous measurement of mean arterial blood pressure (MABP) and heart rate. The digital blood pressure analyzer was set to time-average MABP and heart rate at one-minute (slow speed) or two-second (high speed) intervals.
After a 30 minute post-operation rest period, the rats received bolus injections of either adenosine or nonamethonium ACK. Some rats were pretreated with a bolus of 1,3-dipropyl-p-sulfophenylxanthine (DPSPX, a well-characterized adenosine receptor antagonist) followed by a constant rate infusion of DPSPX at 0.15 mg/80 μl/min. It has previously been shown that this dosing regimen with DPSPX effectively blocks adenosine receptors in the rat in vivo.

A2A receptors = settings: cited from earlier work

SMILES | reduction of infarct size [1] [%] | time to recovery of MABP (anesthetized rat) | time to recovery of heart rate (anesthetized rat) | reduction of MABP (anesthetized rat; FIG. 2A) [mm Hg] | reduction of heart rate (anesthetized rat; FIG. 2B) [beats per minute] | affinity for A2A receptors (A2A receptors)
Nc1ncnc2c1ncn2[C@@H]1O[C@H](CO)[C@@H](O)[C@H]1O [adenosine] | 66 | approximately 500 seconds | approximately 100 seconds | 76 | 158 | 
CCNC(=O)[C@H]1O[C@@H](n2cnc3c(N)nc(NCCc4ccc(CCC(=O)O)cc4)nc32)[C@H](O)[C@@H]1O [CGS 21680, 2-[4-[(2-carboxyethyl)phenyl]ethylamino]-5′-N-ethylcarboxamidoadenosine] |  |  |  |  |  | high affinity

From patent US6995148B2, “Adenosine cyclic ketals: novel adenosine analogues for pharmacotherapy” (University of Pittsburgh, priority 2001, dated 2006)
